Measurements from patent US20230339991A1, “HYPOXIA-ACTIVATED DNA ALKYLATING AGENT AND MEDICAL USE THEREOF” (ASCENTAWITS PHARMACEUTICALS, LTD., priority 2020, published 2023).
Several values for one entry are separate records, joined by “and”; a condition that tells them apart may be missing. Equal values may be shown once. Marks after values point to notes of the source that are not given here.

Legend:
CYP450R enzyme = target: T1, CYP450R enzyme (Homo sapiens, UniProt P16435); assay: Hypoxia-dependent reduction experiments; format: biochemical
T1 sequence (P16435 1-677): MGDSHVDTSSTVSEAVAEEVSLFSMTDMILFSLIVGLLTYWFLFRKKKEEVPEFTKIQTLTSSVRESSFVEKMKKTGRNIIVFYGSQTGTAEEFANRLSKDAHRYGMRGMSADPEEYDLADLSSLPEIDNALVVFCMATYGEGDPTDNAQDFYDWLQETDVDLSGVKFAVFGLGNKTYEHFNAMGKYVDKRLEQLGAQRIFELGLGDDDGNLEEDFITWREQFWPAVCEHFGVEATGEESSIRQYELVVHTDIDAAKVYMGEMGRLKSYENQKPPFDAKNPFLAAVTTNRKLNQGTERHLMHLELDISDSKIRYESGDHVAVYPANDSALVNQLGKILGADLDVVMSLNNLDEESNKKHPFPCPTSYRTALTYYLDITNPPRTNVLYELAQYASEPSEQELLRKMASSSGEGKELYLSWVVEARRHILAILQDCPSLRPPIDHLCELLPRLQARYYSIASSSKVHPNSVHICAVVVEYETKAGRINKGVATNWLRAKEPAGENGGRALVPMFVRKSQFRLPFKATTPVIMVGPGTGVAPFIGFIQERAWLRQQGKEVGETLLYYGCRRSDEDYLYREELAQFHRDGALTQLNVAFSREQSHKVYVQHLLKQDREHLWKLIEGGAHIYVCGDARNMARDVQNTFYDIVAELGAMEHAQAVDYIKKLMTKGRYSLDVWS
Protocol: The ingredients were added to each test tube without the addition of NADPH. Then 50 μl of sample from condition B was transferred to 100 μl acetonitrile (T=0). For samples to be tested under hypoxic conditions, the test tubes were placed in an hypoxic chamber (BACTRON anaerobic/environmental chamber). The reaction was initiated by adding NADPH to test tubes A and C and the sample was then placed at 37° C. For samples to be tested in air, the test tubes were placed in a hot plate at 37° C. After 30 minutes and 2 hours of incubation, 50 μl of samples were taken from each test tube and mixed with 100 μl acetonitrile. Any protein precipitate was removed by spinning all test tubes and placed into HPLC vials for analysis. The results were compared to the calibration curve of the real standard.

[1] = system: HuPrime model GA6201 human gastric cancer subcutaneous transplantation PDX tumor; assay: GA6201 human gastric cancer subcutaneous PDX model; format: in vivo, BALB/c nude mice; settings: for tumor volume: Group 06, 5-50 mg/kg regimen
Plasma stability, mouse = format: in vitro ADME
Protocol: (§1) The pH of the plasma was checked and recorded. Note: a.
(§2) The final concentration of solvent was 0.5%.
(§3) The assay is performed in duplicate.

Plasma stability, monkey = format: in vitro ADME
Protocol: as §1, §2, §3

## O=[N+]([O-])c1ccc(C(OP(=O)(N2CC2)N2CC2)C(F)(F)F)c2ccccc12 (racemic) [Compound A]
CYP450R enzyme; NADPH and CYP 450R enzymes
  reduction rate compared (compound A vs TH-302): similar
CYP450R enzyme; in the presence of NADPH and CYP 450R enzymes, 37° C.
  hypoxia-dependent reduction reaction: showed a hypoxia-dependent reduction reaction
[1]; GA6201 PDX
  effect of tumor growth inhibition compared with isocyclophosphamide: significant advantages
[1]; day 7
  tumor volume: 123.19 mm^3
[1]; day 17
  tumor volume: 219.91 mm^3
[1]; day 21
  tumor volume: 246.57 mm^3
[1]; day 24
  tumor volume: 271.72 mm^3
[1]; day 31
  tumor volume: 270.68 mm^3
[1]; day 35
  tumor volume: 299.31 mm^3
[1]; day 38
  tumor volume: 277.17 mm^3
[1]; day 45
  tumor volume: 342.08 mm^3
[1]; day 49
  tumor volume: 287.47 mm^3
Plasma stability, mouse; Mouse plasma, 15 min
  Remaining percentage (%): 104 ± 2.96%
Plasma stability, mouse; Mouse plasma, 60 min
  Remaining percentage (%): 86.6 ± 3.16%
Plasma stability, mouse; Mouse plasma, 90 min
  Remaining percentage (%): 76.9 ± 2.40%
Plasma stability, mouse; Mouse plasma, 120 min
  Remaining percentage (%): 66.4% and 66.4 ± 0.993%
Plasma stability, mouse; Mouse plasma, 2 h time course, 0 min
  Remaining percentage (%): 100%
Plasma stability, mouse; Mouse plasma, after 30 minutes
  Remaining percentage: 55.07%
Plasma stability, mouse; Mouse plasma, in vitro, read-out: t½
  half-life at 5 µM: 3.15 h
Plasma stability, mouse; Mouse plasma, time course, 30 min
  Remaining percentage (%): 97.7 ± 4.71%
Plasma stability, mouse; mouse plasma
  plasma stability: unstable
Plasma stability, monkey; Monkey plasma, 15 min
  Remaining percentage (%): 97.9 ± 3.72%
Plasma stability, monkey; Monkey plasma, 60 min
  Remaining percentage (%): 103 ± 4.19%
Plasma stability, monkey; Monkey plasma, 90 min
  Remaining percentage (%): 92.3 ± 2.15%
Plasma stability, monkey; Monkey plasma, 120 min
  Remaining percentage (%): 87.4% and 87.4 ± 1.59%
Plasma stability, monkey; Monkey plasma, 2 h time course, 0 min
  Remaining percentage (%): 100%
Plasma stability, monkey; Monkey plasma, in vitro
  t½: >373* min
Plasma stability, monkey; Monkey plasma, in vitro, read-out: t½
  half-life at 5 µM: > 6.22 h
Plasma stability, monkey; Monkey plasma, time course, 30 min
  Remaining percentage (%): 107 ± 2.78%
Plasma stability, monkey; monkey plasma
  plasma stability: stable
